Data taken from ChEMBL document CHEMBL1201862, “PubChem BioAssay data set” (2004).
Calls of active or inactive are those of the source.

Assays:
[1] = target: T1, CAAX prenyl protease 2 (Saccharomyces cerevisiae S288c, UniProt Q03530); format: biochemical
T1 sequence (Q03530 whole entry): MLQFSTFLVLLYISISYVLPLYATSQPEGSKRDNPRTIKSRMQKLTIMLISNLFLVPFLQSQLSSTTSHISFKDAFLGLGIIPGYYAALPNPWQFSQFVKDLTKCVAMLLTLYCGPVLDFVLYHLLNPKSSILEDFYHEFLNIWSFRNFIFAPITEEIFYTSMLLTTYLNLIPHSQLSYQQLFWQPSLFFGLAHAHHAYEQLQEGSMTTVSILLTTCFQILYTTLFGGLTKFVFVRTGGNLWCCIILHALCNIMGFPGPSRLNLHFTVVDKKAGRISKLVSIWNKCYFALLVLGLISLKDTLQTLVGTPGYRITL

[2] = cAMP pathway inhibition in counterscreen cell line – TR-FRET cAMP detection, counter-screen for MC4R biased antagonist project, dose response (AID 602305); format: functional, cell-based;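 note: U2OS cells stimulated with forskolin near its EC80 as the cAMP inducer; potency is for inhibition of forskolin-stimulated cAMP signaling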
[3] = test system: HEK293; experiment: cells; format: functional, cell-based; details: Homo sapiens
[4] = general cell-killing toxicity readout – plate reader, dry powder samples, cytotoxicity control for PAX8 inhibitor project, dose response (AID 743021); format: functional, cell-based
[5] = target: Paired box protein Pax-8 (Homo sapiens, UniProt Q06710); experiment: PAX8 transcriptional activity inhibition in RMG-I – RMG-I cells, luciferase, cherry-pick, dose response (AID 687027); format: functional, cell-based;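 note: luciferase reporter driven by Pax8 target thyroperoxidase promoter measured by SteadyGlo luminescence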
[6] = target: T2, Heat shock factor protein 1 (Mus musculus, UniProt P38532); experiment: decrease of HSF1-responsive luciferase luminescence – cell-based, NIH3T3, dose retest, confirmation (AID 2382); format: functional;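 note: NIH3T3 fibroblasts with HSF1-driven luciferase reporter stressed by proteasome inhibitor MG132; luminescence from HSF1-driven luciferase expression after 8 hours of MG132 stress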
T2 sequence (P38532 whole entry): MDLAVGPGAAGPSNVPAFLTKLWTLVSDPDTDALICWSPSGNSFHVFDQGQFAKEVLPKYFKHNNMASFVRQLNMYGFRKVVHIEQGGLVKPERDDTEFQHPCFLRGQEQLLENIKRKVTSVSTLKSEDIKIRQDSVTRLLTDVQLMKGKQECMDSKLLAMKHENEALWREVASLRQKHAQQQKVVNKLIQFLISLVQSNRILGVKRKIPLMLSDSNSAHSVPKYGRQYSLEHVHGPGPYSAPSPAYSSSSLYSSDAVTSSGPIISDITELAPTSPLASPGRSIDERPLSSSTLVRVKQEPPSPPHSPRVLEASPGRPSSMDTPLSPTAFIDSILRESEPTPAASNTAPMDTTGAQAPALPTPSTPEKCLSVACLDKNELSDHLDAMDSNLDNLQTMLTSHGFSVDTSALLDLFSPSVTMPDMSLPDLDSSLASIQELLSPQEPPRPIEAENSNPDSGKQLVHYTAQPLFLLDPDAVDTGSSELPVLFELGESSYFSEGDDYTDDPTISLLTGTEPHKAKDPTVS

[7] = target: T3, Fatty acid synthase (Homo sapiens, UniProt P49327); experiment: inhibition of human FAS-TE enzyme activity – biochemical, endpoint fluorescence intensity, uHTS hits, dose response (AID 624327); format: functional;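 note: fluorescence from hydrolysis of an O-methyl fluorescein acyl ester substrate by the enzyme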
[8] = test system: HEK293; experiment: cells; format: functional, cell-based; details: Homo sapiens; remark: listed apart in the source
[9] = viability of PTEN-deleted HCT116 cells – cell-based, HCT116 PTEN knockout, dose response (AID 1047); format: functional;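 note: HCT116 colon tumor cells with PTEN knocked out; cells exposed to compound for 60 hours before readout; potency for loss of cell viability measured by luminescence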
[10] = test system: HEK293; experiment: inhibition of NOD1-driven NF-kB reporter – cell-based, luminescence, uHTS, primary screen (AID 1578); format: functional; details: Homo sapiens
[11] = viability of HCT116 lacking mutant beta-catenin – cell-based, human colon tumor, dose response (AID 1045); format: functional;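 note: HCT116 colon tumor cells with beta catenin knocked out; cells exposed to compound for 60 hours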
[12] = target: Neurotensin receptor type 1 (Homo sapiens, UniProt P30989); format: functional;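 note: Image-based confirmatory dose-response assay measuring agonist activity at NTR1; NTR1-expressing U2OS osteosarcoma cells imaged for beta-arrestin GFP spot formation; agonist potency where compounds increase beta-arrestin recruitment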
[13] = target: T4, Hexokinase HKDC1 (Homo sapiens, UniProt Q2TB90); experiment: inhibition of HKDC1 glucose phosphorylation – biochemical, W721R variant, dose response (AID 504729); format: functional
T4 sequence (Q2TB90 whole entry): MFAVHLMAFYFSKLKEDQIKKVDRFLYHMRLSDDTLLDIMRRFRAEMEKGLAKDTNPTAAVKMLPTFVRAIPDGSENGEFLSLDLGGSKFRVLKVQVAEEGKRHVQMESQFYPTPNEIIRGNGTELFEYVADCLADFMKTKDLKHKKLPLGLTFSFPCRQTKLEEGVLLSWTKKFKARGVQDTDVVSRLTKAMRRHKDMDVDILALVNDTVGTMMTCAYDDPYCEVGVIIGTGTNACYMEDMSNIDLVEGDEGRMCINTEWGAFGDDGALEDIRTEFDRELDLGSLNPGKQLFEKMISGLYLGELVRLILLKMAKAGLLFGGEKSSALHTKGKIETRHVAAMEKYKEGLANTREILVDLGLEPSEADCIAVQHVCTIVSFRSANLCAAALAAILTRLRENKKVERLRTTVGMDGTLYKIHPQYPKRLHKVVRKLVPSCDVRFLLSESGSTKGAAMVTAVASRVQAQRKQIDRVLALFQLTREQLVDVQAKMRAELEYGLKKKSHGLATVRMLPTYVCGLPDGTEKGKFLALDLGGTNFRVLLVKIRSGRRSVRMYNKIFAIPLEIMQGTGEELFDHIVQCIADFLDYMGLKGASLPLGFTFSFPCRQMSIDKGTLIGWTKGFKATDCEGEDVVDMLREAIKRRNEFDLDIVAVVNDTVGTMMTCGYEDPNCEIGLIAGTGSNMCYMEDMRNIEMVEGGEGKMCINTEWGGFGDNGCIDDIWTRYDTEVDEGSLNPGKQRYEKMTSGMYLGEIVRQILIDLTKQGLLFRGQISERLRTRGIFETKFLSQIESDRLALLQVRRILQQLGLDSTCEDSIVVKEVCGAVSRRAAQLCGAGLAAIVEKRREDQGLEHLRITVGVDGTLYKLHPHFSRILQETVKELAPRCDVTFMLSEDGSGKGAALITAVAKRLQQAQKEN

[14] = test system: HEK293; experiment: cells; format: functional, cell-based; details: Homo sapiens; remark: listed apart in the source
[15] = target: T3, Fatty acid synthase; experiment: inhibition of human FAS-TE enzyme activity – biochemical, kinetic fluorescence intensity, dose response (AID 624326); format: functional;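 note: rate of fluorescence rise from hydrolysis of a fluorogenic O-methyl fluorescein ester substrate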

T3 sequence (P49327 whole entry): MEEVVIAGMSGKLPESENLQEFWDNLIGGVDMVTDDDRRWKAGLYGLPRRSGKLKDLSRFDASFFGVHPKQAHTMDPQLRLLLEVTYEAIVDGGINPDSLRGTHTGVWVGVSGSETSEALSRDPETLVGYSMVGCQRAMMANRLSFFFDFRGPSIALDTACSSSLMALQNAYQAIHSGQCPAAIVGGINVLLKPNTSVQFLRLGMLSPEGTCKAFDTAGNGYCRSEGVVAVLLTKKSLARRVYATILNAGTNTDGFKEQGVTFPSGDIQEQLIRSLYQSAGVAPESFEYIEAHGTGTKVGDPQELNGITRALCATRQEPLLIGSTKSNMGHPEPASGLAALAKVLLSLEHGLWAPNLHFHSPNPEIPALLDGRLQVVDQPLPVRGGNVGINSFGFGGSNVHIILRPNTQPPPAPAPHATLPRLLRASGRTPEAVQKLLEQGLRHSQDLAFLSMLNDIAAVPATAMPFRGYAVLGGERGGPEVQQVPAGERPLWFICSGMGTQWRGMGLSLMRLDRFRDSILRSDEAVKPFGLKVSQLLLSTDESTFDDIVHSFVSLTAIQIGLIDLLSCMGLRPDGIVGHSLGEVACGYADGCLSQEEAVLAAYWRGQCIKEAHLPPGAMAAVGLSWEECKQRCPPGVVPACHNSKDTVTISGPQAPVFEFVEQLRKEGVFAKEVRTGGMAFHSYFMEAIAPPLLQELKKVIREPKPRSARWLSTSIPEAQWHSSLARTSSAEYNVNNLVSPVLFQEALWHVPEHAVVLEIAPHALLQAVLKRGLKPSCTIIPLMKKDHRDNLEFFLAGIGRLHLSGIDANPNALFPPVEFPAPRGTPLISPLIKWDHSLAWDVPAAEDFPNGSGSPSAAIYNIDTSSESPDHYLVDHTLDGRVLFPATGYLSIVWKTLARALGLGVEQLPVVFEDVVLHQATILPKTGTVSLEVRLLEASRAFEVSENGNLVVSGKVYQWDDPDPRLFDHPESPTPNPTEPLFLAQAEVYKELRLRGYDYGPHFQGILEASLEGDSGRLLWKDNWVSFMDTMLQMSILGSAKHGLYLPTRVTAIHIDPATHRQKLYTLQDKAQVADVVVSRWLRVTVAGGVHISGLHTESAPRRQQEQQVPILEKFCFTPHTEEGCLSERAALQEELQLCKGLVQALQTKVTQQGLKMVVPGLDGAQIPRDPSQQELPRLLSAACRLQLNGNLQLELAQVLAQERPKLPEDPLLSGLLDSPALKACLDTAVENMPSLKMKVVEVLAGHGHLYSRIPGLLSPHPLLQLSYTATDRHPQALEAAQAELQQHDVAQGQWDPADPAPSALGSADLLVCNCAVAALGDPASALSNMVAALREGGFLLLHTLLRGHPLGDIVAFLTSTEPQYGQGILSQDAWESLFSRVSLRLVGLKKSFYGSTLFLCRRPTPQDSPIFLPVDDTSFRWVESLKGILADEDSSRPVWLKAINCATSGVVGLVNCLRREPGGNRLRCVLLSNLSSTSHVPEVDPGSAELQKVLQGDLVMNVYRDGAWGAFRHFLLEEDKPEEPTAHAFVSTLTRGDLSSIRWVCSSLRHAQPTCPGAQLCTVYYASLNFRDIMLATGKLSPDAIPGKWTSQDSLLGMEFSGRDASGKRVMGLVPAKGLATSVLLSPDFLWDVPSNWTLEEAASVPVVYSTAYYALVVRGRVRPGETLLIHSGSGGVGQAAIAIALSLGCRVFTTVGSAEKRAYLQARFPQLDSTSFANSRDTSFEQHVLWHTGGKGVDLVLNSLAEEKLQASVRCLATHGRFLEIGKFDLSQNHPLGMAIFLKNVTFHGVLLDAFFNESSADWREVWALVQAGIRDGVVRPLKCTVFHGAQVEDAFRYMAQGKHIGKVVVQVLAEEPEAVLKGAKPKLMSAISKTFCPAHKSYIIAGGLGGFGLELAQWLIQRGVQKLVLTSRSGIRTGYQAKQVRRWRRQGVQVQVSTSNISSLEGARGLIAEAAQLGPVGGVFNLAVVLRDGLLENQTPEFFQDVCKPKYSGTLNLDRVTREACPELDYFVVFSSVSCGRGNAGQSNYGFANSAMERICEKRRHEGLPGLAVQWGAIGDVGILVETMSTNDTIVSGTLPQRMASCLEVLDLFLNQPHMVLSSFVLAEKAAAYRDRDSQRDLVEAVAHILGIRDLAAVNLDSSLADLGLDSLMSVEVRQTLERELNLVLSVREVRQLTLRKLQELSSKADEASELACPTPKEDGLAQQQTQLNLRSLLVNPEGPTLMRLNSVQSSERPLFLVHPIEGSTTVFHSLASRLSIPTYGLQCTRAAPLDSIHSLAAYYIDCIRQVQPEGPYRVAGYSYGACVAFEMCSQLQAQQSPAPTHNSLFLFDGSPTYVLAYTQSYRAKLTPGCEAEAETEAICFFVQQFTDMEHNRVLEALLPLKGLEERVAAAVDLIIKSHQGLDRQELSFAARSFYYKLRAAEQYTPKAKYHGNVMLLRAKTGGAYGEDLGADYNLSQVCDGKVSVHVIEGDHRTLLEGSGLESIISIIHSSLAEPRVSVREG
Chain of Paired box protein Pax-8 (Q06710 whole entry): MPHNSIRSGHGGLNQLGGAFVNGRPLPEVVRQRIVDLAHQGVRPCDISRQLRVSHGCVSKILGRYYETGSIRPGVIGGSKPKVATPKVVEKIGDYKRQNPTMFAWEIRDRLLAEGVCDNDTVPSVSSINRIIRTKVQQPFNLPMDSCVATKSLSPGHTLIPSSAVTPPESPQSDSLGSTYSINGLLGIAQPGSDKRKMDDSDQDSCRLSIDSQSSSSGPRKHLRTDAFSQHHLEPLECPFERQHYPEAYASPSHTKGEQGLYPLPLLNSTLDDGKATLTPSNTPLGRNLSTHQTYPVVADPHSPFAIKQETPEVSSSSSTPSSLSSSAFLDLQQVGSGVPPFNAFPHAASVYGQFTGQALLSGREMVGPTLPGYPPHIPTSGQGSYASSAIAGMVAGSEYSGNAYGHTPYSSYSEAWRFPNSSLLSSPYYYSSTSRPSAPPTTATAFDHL
Chain of Neurotensin receptor type 1 (P30989 whole entry): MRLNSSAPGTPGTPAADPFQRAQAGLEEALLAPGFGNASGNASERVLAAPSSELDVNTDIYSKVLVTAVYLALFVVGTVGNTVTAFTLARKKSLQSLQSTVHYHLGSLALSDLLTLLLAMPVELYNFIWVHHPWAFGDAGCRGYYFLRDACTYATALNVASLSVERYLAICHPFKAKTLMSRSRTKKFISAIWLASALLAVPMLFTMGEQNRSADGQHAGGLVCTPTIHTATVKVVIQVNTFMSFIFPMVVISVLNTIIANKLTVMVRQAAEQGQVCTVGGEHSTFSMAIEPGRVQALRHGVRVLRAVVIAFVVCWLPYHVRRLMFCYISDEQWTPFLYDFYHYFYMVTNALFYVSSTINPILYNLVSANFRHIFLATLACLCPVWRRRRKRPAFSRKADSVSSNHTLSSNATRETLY

SMILES: CCCCCCCCCC[N+](C)(C)CC/C=C1/c2ccccc2Sc2ccc(Cl)cc21
- AC50 [1]: 4.96 µM (active)
- IC50 [2]: 22.6 µM (inactive)

SMILES: O=C(NCCc1ccccc1)C(c1cccs1)N(C(=O)CCl)c1ccc(Cl)cc1 (stereo not given)
- IC50 [3]: 11.5 µM (active)
- AC50 [4]: 6.13 µM (active)
- AC50 [5]: 2.84 µM (active)
- EC50 [6]: 1.28 µM (active)
- IC50 [7]: 7.91 µM (active)
- IC50 [8]: > 20 µM (inactive)
- EC50 [9]: 3.7 µM (active)
- EC50 [10]: 5.3 µM (active)
- EC50 [11]: 2.62 µM (active)
- EC50 [12]: 2.5 µM (active)
- IC50 [13]: 35.7 µM (inactive)
- IC50 [14]: 4.24 µM (active)
- IC50 [15]: 10.3 µM (active)
